As a reminder, the IC50 is the point on the concentration scale where inhibition reaches its midpoint. Read a high IC50 as weaker potency.

The source of these data is patent US20230365571A1, “COMPOUNDS AND COMPOSITIONS AS Sppl2a INHIBITORS” (Novartis AG, priority 2020, published 2023).

For test [1], the target named is T1, human SPPL2a (Homo sapiens, UniProt Q8TCT8).
T1 sequence (Q8TCT8 26-520): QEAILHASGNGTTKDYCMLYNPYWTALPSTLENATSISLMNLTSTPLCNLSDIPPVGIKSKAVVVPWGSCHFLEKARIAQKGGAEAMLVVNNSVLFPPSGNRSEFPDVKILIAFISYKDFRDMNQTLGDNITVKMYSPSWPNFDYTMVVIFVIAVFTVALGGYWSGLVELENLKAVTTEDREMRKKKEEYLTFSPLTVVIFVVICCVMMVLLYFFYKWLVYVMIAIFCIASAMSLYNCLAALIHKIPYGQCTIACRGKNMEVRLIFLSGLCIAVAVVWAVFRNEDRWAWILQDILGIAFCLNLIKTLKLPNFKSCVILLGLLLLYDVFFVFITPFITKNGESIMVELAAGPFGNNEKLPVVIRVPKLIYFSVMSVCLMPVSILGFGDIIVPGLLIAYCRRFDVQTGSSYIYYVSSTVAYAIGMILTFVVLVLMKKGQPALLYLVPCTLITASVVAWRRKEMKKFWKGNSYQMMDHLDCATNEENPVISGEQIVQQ
As to the kind of experiment: Sppl2a TL (translocation) imaging assay in U-2 OS cells. In kind it is cell-based. Also noted: expressed in transfected cells. The settings on record: U-2 OS cells expressing human SPPL2a and EGFP-TNFα(aa1-76) NTF substrate; 24 h. The protocol:
SPPL2a, TL in U-2 OS Cells. Stable U-2 OS cell lines expressing human SPPL2a constitutively and a EGFP-labeled TNFα(aa1-76) NTF substrate under a doxycycline-regulated promoter were used for the imaging assays. Cells were seeded at 3000 cells/30 μL/384-well in DMEM/GlutaMax™-I (Invitrogen) supplemented with tetracycline-free 10% FBS (Amimed) and incubated at 37° C., 5% CO2 for 3-4 h. Subsequently, 3.3 μL of inhibitors, prediluted in doxycycline-containing medium for 11-point concentration-response curves, were added to each well using a CyBi well liquid handling device (Cybio AG, Jena, Germany) to result in final inhibitor concentrations ranging from 100 μM to 1 nM (final DMSO concentration 0.9% (v/v)) and 5 μg/mL doxycycline). The cells were incubated with inhibitor at 37° C., 5% CO2 for 24 h. Thereafter cell were fixed in 4% PFA/PBS and in parallel, nuclei were stained with Hoechst (Invitrogen) 1:5000 in PBS for 30 min. The plates were imaged using a Cellomics ArrayScan VTI HCS reader with 10×/0.3NA objective (Thermo Fisher Scientific, USA). Six images per well were acquired. Images for the EGFP signal (Ex395, Em509) and the Hoechst nuclear dye (Ex350, Em425) were acquired simultaneously with image analysis using the “Nuclear Translocation” assay algorithm of the Cellomics ArrayScan software. Nuclei were detected based on the Hoechst staining, the nuclear mask was transferred to the EGFP channel, and a 4 pixel wide cytoplasm ring region was defined around the nucleus. The intensity of the EGFP signal was measured both in the nuclear and in the cytoplasm ring region of each individual cell (in general 800-1000 individual cells were analyzed per well), and the difference of the average nuclear versus average cytoplasmic intensity of the EGFP signal was calculated (“CircRingAvgIntenDiffCh2”=“CircAvgIntenCh2”−“RingAvgIntenCh2”). Additionally the number of cells were acquired (feature termed “ValidCellCount”) and used to calculate cell toxicity (CC50). Percent inhibition was calculated relative to the positive (0.5 μM LY-411,575=100% inhibition) and negative (DMSO=0% inhibition) controls. The IC50 value was calculated from the plot of percentage of inhibition vs inhibitor concentration using nonlinear regression analysis software, e.g., Origin (OriginLab Corp.).

Test [2] addresses T1, human SPPL2a. Put plainly: Sppl2a RGA (reporter gene assay) in HEK293 cells. In kind it is cell-based. Also noted: expressed in transfected cells; host or cells: HEK293 (transient). The settings on record: NT-TNF-VP16-Gal4 substrate, Gal4-luciferase reporter, 24 h. The text has this:
Sppl2a RGA (Reporter Gene Assay):
Sppl2a is an intramembrane aspartyl protease with similarities to presenilin, the active subunit of the γ-secretase complex. The assay is based on the coupling of the proteolytic degradation of a membrane bound synthetic substrate (VP16-Gal4 fusion protein with the N-terminal domain of TNF alpha), which migrates to the nucleus upon cleavage, with the Gal4 driven expression of luciferase. Inhibition of Sppl2a results in a reduction of nuclear VP16-Gal4 activator and therefore in a reduction of the production of luciferase. The luciferase dependent-luminescence is plotted against the concentrations of compound to generate a dose response curve, which allows the calculation of the IC50 value.
DNA vectors encoding human Sppl2a, NT-TNF-VP16-Gal4 and a Gal4-luciferase reporter were transiently transfected in HEK293 cells. In a typical experiment 5 μg plasmid for SPPL2a, 10 μg plasmid encoding the reporter Gal4-luciferase and 20 μg plasmid encoding the substrate NT-TF-VP16-Gal4 were mixed together. The DNA mixture was combined with 107 μl FuGENE® (Promega), 735 μl Opti-MEM® (Life Technologies) and incubated for 5 minutes at RT. To this mixture 20 mL of concentrated HEK293 cells were added and thoroughly mixed. The cell suspension was distributed to a white solid 384 well plate. Within 5 hours, 50 nl of compound in DMSO was stamped into the wells via pintool. The plate was incubated for 24 h at 37° C., 5% CO2 in a humidified incubator, before the addition of 25 μl Bright Glo. After incubation at RT for 5 min, the plate was transferred to a luminometer and the luminescence was measured. The IC50 was determined by plotting compound concentration vs. normalized luminescence values.
In general terms: A reporter such as luciferase makes a cellular process visible.

As for `O=C(C[C@H](C(=O)N[C@@H]1C(=O)N2CCCN2C(=O)c2ccccc21)C1CC1)Nc1sc(-c2cnn(C(F)F)c2)nc1Cl` [Example 104, (S)-N^4-(4-Chloro-2-(1-(difluoromethyl)-1H-pyrazol-4-yl)thiazol-5-yl)-2-cyclopropyl-N^1-((S)-5,11-dioxo-2,3,10,11-tetrahydro-1H,5H-benzo[d]pyrazolo [1,2-a][1,2]diazepin-10-yl)succinamide], the IC50 in test [1] and in test [2] was 17 nM in each case.
For the compound `C[C@H](CC(=O)Nc1cc(-c2ccc(C(F)(F)F)nc2)nn1C)C(=O)N[C@@H]1C(=O)N2CCCN2Cc2ccccc21` [Example 72, (R)-2-Methyl-N^4-(1-methyl-3-(6-(trifluoromethyl)pyridin-3-yl)-1H-pyrazol-5-yl)-N^1-((S)-11-oxo-2,3,10,11-tetrahydro-1H,5H-benzo[d]pyrazolo [1,2-a][1,2]diazepin-10-yl)succinamide], the concentration for half-maximal inhibition (IC50) in test [1] is 4 nM; in test [2] it was 9 nM.
The matching figures for `C[C@H](CC(=O)Nc1cc(-c2ccco2)nn1C1CC1)C(=O)N[C@@H]1C(=O)N2CCCN2Cc2ccccc21` [Example 96, (R)-N^4-(1-Cyclopropyl-3-(furan-2-yl)-1H-pyrazol-5-yl)-2-methyl-N^1-((S)-11-oxo-2,3,10,11-tetrahydro-1H,5H-benzo[d]pyrazolo [1,2-a][1,2]diazepin-10-yl)succinamide]: 12 nM and 28 nM.
For `C[C@H](CC(=O)Nc1cc(NC(=O)C(F)(F)C(F)(F)F)nn1C)C(=O)N[C@@H]1C(=O)N2CCCN2Cc2ccccc21` [Example 70, (R)-2-Methyl-N^4-(1-methyl-3-(2,2,3,3,3-pentafluoropro-panamido)-1H-pyrazol-5-yl)-N^1-((S)-11-oxo-2,3,10,11-tetrahydro-1H,5H-benzo[d]pyrazolo [1,2-a][1,2]diazepin-10-yl)succinamide] the same measures were 4 nM and 13 nM.
Regarding `C[C@H](CC(=O)Nc1cn(-c2ccc(C(F)(F)F)nc2)nc1Cl)C(=O)N[C@@H]1C(=O)N2CCCN2Cc2ccccc21` [Example 88, (R)-N^4-(3-Chloro-1-(6-(trifluoromethyl)pyridin-3-yl)-1H-pyrazol-4-yl)-2-methyl-N^1-((S)-11-oxo-2,3,10,11-tetrahydro-1H,5H-benzo[d]pyrazolo [1,2-a][1,2]diazepin-10-yl)succinamide], the IC50 in test [1] is 10 nM; in test [2], 7 nM.
For `C[C@H](Cc1nc2c(Cl)cccc2[nH]1)C(=O)N[C@@H]1C(=O)N2CCCN2Cc2ccccc21` [Example 115, (R)-3-(4-chloro-1H-benzo[d]imidazol-2-yl)-2-methyl-N-((S)-11-oxo-2,3,10,11-tetrahydro-1H,5H-benzo[d]pyrazolo[1,2-a][1,2]diazepin-10-yl)propanamide], the 50% inhibitory concentration (IC50) in test [1] stood at 3970 nM; in test [2], 228 nM.
The matching figures for `C[C@@H](CF)NC(=O)c1cc(NC(=O)C[C@H](C(=O)N[C@@H]2C(=O)N3CCCN3Cc3ccccc32)C2CC2)n(C)n1` [Example 78, (S)-2-Cyclopropyl-N^4-(3-(((S)-1-fluoropropan-2-yl)carbamoyl)-1-methyl-1H-pyrazol-5-yl)-N^1-((S)-11-oxo-2,3,10,11-tetrahydro-1H,5H-benzo[d]pyrazolo [1,2-a][1,2]diazepin-10-yl)succinamide]: 6 nM and 43 nM.
For `Cc1cccc2nc(C[C@@H](C)C(=O)N[C@@H]3C(=O)N4CCCN4Cc4ccccc43)[nH]c12` [Example 112, (R)-2-methyl-3-(7-methyl-1H-benzo[d]imidazol-2-yl)-N-((S)-11-oxo-2,3,10,11-tetrahydro-1H,5H-benzo[d]pyrazolo[1,2-a][1,2]diazepin-10-yl)propanamide] the same measures were 139 nM and 28 nM.
On to `CC[C@H](CNC(=O)c1sc(C2CC2)nc1C(F)(F)F)C(=O)N[C@@H]1C(=O)N2CC3(CC3)CN2C(=O)c2ccccc21` [Example 59, 2-Cyclopropyl-N-((R)-2-(((S)-5,11-dioxo-10,11-dihydro-1H,3H,5H-spiro[benzo[d]pyr-azolo[1,2-a][1,2]diazepine-2,1′-cyclopropan]-10-yl)carbamoyl)butyl)-4-(trifluoromethyl) thiazole-5-carboxamide], for which the values for the IC50 in test [1] and in test [2] were 555 nM and 661 nM, respectively.
Take `Cc1cc(F)cc2nc(C[C@@H](C)C(=O)N[C@@H]3C(=O)N4CCCN4Cc4c(F)cccc43)[nH]c12` [Example 118, (R)-N-((S)-6-fluoro-11-oxo-2,3,10,11-tetrahydro-1 H,5H-benzo[d]pyrazolo[1,2-a][1,2]diazepin-10-yl)-3-(5-fluoro-7-methyl-1H-benzo[d]imidazol-2-yl)-2-methylpropanamide]: the figures for the IC50 in test [1] and in test [2] were 116 nM and 19 nM, respectively.
For `Cc1nn(-c2ccc(C(F)(F)F)nc2)cc1NC(=O)C[C@@H](C)C(=O)N[C@@H]1C(=O)N2CCCN2Cc2ccccc21` [Example 92, (R)-2-Methyl-N^4-(3-methyl-1-(6-(trifluoromethyl)pyridin-3-yl)-1H-pyrazol-4-yl)-N^1-((S)-11-oxo-2,3,10,11-tetrahydro-1H,5H-benzo[d]pyrazolo [1,2-a][1,2]diazepin-10-yl)succinamide] the same measures were 12 nM and 11 nM.
For `CCn1nc(-c2ccc(C(F)(F)F)nc2)cc1NC(=O)C[C@@H](C)C(=O)N[C@@H]1C(=O)N2CCCN2Cc2ccccc21` [Example 83, (R)-N^4-(1-Ethyl-3-(6-(trifluoromethyl)pyridin-3-yl)-1H-pyrazol-5-yl)-2-methyl-N^1-((S)-11-oxo-2,3,10,11-tetrahydro-1H,5H-benzo[d]pyrazolo [1,2-a][1,2]diazepin-10-yl)succinamide] the same measures were 9 nM and 6 nM.
In the case of `C[C@H](CC(=O)Nc1sc(-c2ccc(C(F)(F)F)nc2)nc1Cl)C(=O)N[C@@H]1C(=O)N2CCCN2Cc2ccccc21` [Example 108, (R)-N^4-(4-Chloro-2-(6-(trifluoromethyl)pyridin-3-yl)thiazol-5-yl)-2-methyl-N^1-((S)-11-oxo-2,3,10,11-tetrahydro-1H,5H-benzo[d]pyrazolo [1,2-a][1,2]diazepin-10-yl)succinamide], the IC50 in test [1] and in test [2] was 3 nM throughout.
